For assay [1], the system named is A549 cells. The assay can be described thus: Proliferation Assay (A549 viability, Cell Titer Fluor, 72 hours). The class given is cell-based. The following applies: Homo sapiens, A549, 72 h. In outline:
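A549 cells seeded at 1000 cells/well, rested 24 h, then exposed to compound in 0.5% DMSO for 72 h at 37 °C. Viability read by Cell Titer Fluor fluorescence; IC50 from four-parameter logistic fit.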

Assay [2] deals with purified recombinant human GAC (GLS1) (Homo sapiens (Human), UniProt O94925). The experiment in a line: GLS1 Enzymatic Activity Assay (dual-coupled enzymatic assay, resorufin/Amplex UltraRed readout).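 Also: glutamate from GAC coupled via glutamate oxidase and peroxidase to resorufin, read as fluorescence (ex 530, em 590 nm) kinetically or at 20 min, four-parameter logistic IC50 fit.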 The class given is biochemical.
purified recombinant human GAC (GLS1), sequence (O94925 other isoform, or with tags, fused parts or gaps): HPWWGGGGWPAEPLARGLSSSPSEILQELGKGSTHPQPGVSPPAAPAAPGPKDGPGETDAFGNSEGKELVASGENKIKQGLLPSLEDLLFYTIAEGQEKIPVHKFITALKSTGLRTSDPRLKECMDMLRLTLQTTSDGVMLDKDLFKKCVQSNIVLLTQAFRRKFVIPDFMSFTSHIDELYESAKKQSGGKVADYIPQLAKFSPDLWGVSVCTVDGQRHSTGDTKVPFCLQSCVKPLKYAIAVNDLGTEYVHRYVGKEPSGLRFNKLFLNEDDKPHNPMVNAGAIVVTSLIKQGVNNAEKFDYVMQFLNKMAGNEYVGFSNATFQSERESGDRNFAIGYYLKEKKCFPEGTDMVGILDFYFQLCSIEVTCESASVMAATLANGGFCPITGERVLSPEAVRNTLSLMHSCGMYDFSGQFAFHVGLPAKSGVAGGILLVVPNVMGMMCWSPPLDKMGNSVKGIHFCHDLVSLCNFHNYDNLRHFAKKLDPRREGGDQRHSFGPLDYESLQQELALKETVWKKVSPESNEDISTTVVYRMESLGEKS

A word on the EC50: it is the concentration that produces a half-maximal response. A higher EC50 goes with a need for much substance. The IC50 is the concentration needed to halve the response being measured. Regarding `O=C(Cc1cccc(OC(F)(F)F)c1)Nc1cn(CCCCn2cc(C(=O)NCC3CCCCC3)nn2)nn1` [Example 286, N-(cyclohexylmethyl)-1-[4-(4-{2-[3-(trifluoromethoxy)phenyl]acetamido}-1H-1,2,3-triazol-1-yl)butyl]-1H-1,2,3-triazole-4-carboxamide], the 50% effective concentration (EC50) in assay [1] lay within 0.1 to 0.5 µM. Further, the IC50 in assay [2] is less than 0.1 µM.
For `O=C(CC1CCCC1)Nc1cn(CCCCn2cc(C(=O)NCC3CCCC3)nn2)nn1` [Example 288, 1-{4-[4-(2-cyclopentylacetamido)-1H-1,2,3-triazol-1-yl]butyl}-N-(cyclopentylmethyl)-1H-1,2,3-triazole-4-carboxamide] the same measures were 0.5 to 5 µM and 0.1 to 0.5 µM.
For `O=C(Cc1cccc(OC(F)(F)F)c1)Nc1cn(CCCCn2cc(C(=O)NCC3CCCC3)nn2)nn1` [Example 292, N-(cyclopentylmethyl)-1-[4-(4-{2-[3-(trifluoromethoxy)phenyl]acetamido}-1H-1,2,3-triazol-1-yl)butyl]-1H-1,2,3-triazole-4-carboxamide] the same measures were 0.5 to 5 µM and 0.1 to 0.5 µM.
Regarding `O=C(Cc1ccccn1)Nc1cn(CCCCn2cc(C(=O)NCc3cccc(OC(F)(F)F)c3)nn2)nn1` [Example 293, 1-(4-{4-[2-(pyridin-2-yl)acetamido]-1H-1,2,3-triazol-1-yl}butyl)-N-{[3-(trifluoromethoxy)phenyl]methyl}-1H-1,2,3-triazole-4-carboxamide], the concentration for a half-maximal effect (EC50) in assay [1] fell in the range of 0.1 to 0.5 µM. In addition, the IC50 in assay [2] was less than 0.1 µM.
For the molecule `O=C(Cc1cccnc1)Nc1cn(CCCCn2cc(C(=O)NCc3cccc(OC(F)(F)F)c3)nn2)nn1` [Example 294, 1-(4-{4-[2-(pyridin-3-yl)acetamido]-1H-1,2,3-triazol-1-yl}butyl)-N-{[3-(trifluoromethoxy)phenyl]methyl}-1H-1,2,3-triazole-4-carboxamide], the 50% effective concentration (EC50) in assay [1] lay within 0.1 to 0.5 µM. Further, in assay [2], the IC50 is less than 0.1 µM.
For `O=C(CC1CCCC1)Nc1cn(CCCCn2cc(C(=O)NCc3cccc(OC(F)(F)F)c3)nn2)nn1` [Example 295, 1-{4-[4-(2-cyclopentylacetamido)-1H-1,2,3-triazol-1-yl]butyl}-N-{[3-(trifluoromethoxy)phenyl]methyl}-1H-1,2,3-triazole-4-carboxamide], in that order: less than 0.1 µM and less than 0.1 µM.
For `O=C(CC1CCCCC1)Nc1cn(CCCCn2cc(C(=O)NCc3cccc(OC(F)(F)F)c3)nn2)nn1` [Example 296, 1-{4-[4-(2-cyclohexylacetamido)-1H-1,2,3-triazol-1-yl]butyl}-N-{[3-(trifluoromethoxy)phenyl]methyl}-1H-1,2,3-triazole-4-carboxamide] the same measures were less than 0.1 µM and less than 0.1 µM.
`Cc1ccc(CNC(=O)c2cn(CCCCn3cc(NC(=O)Cc4cccc(OC(F)(F)F)c4)nn3)nn2)cn1` [Example 299, N-[(6-methylpyridin-3-yl)methyl]-1-[4-(4-{2-[3-(trifluoromethoxy)phenyl]acetamido}-1H-1,2,3-triazol-1-yl)butyl]-1H-1,2,3-triazole-4-carboxamide]: the EC50 in assay [1] was less than 0.1 µM. Moreover, the IC50 in assay [2] was less than 0.1 µM.
In assay [1], `Cc1ccc(CNC(=O)c2cn(CCCCn3cc(NC(=O)CC4CC4)nn3)nn2)cn1` [Example 300, 1-{4-[4-(2-cyclopropylacetamido)-1H-1,2,3-triazol-1-yl]butyl}-N-[(6-methylpyridin-3-yl)methyl]-1H-1,2,3-triazole-4-carboxamide] yielded an EC50 of more than 5 µM. Moreover, the IC50 in assay [2] is 0.5 to 5 µM.
For `O=C(Cc1cccc(OC(F)(F)F)c1)Nc1cn(CCCCn2cc(C(=O)NCC3CC3)nn2)nn1` [Example 301, N-(cyclopropylmethyl)-1-[4-(4-{2-[3-(trifluoromethoxy)phenyl]acetamido}-1H-1,2,3-triazol-1-yl)butyl]-1H-1,2,3-triazole-4-carboxamide], in that order: 0.5 to 5 µM and 0.1 to 0.5 µM.
For `O=C(CC1CCCCC1)Nc1cn(CCCCn2cc(C(=O)NCC3CC3)nn2)nn1` [Example 305, 1-{4-[4-(2-cyclohexylacetamido)-1H-1,2,3-triazol-1-yl]butyl}-N-(cyclopropylmethyl)-1H-1,2,3-triazole-4-carboxamide] the same measures were 0.5 to 5 µM and 0.5 to 5 µM.
In turn, `Cc1ccc(CC(=O)Nc2cn(CCCCn3cc(C(=O)NCc4ccccn4)nn3)nn2)cn1` [Example 306, 1-(4-{4-[2-(6-methylpyridin-3-yl)acetamido]-1H-1,2,3-triazol-1-yl}butyl)-N-(pyridin-2-ylmethyl)-1H-1,2,3-triazole-4-carboxamide] gave a concentration for a half-maximal effect (EC50) in assay [1] of 0.5 to 5 µM. Besides, the IC50 in assay [2] lay in the range of 0.1 to 0.5 µM.
For `O=C(Cc1cccc(OC(F)(F)F)c1)Nc1cn(CCCCn2cc(C(=O)NCc3cccnc3)nn2)nn1` [Example 307, N-(pyridin-3-ylmethyl)-1-[4-(4-{2-[3-(trifluoromethoxy)phenyl]acetamido}-1H-1,2,3-triazol-1-yl)butyl]-1H-1,2,3-triazole-4-carboxamide], in that order: 0.1 to 0.5 µM and less than 0.1 µM.
For `O=C(CC1CCCC1)Nc1cn(CCCCn2cc(C(=O)NCc3cccnc3)nn2)nn1` [Example 309, 1-{4-[4-(2-cyclopentylacetamido)-1H-1,2,3-triazol-1-yl]butyl}-N-(pyridin-3-ylmethyl)-1H-1,2,3-triazole-4-carboxamide] the same measures were 0.1 to 0.5 µM and 0.1 to 0.5 µM.
For `O=C(CC1CCCCC1)Nc1cn(CCCCn2cc(C(=O)NCc3cccnc3)nn2)nn1` [Example 310, 1-{4-[4-(2-cyclohexylacetamido)-1H-1,2,3-triazol-1-yl]butyl}-N-(pyridin-3-ylmethyl)-1H-1,2,3-triazole-4-carboxamide] the same measures were 0.1 to 0.5 µM and less than 0.1 µM.
Consider `Cc1ccc(CC(=O)Nc2cn(CCCCn3cc(C(=O)NCC4CCCC4)nn3)nn2)cn1` [Example 311, N-(cyclopentylmethyl)-1-(4-{4-[2-(6-methylpyridin-3-yl)acetamido]-1H-1,2,3-triazol-1-yl}butyl)-1H-1,2,3-triazole-4-carboxamide], for which, in assay [1], the EC50 was 0.5 to 5 µM. Besides, the IC50 in assay [2] is 0.1 to 0.5 µM.
With `Cc1ccc(CC(=O)Nc2cn(CCCCn3cc(C(=O)NCC4CCCCC4)nn3)nn2)cn1` [Example 312, N-(cyclohexylmethyl)-1-(4-{4-[2-(6-methylpyridin-3-yl)acetamido]-1H-1,2,3-triazol-1-yl}butyl)-1H-1,2,3-triazole-4-carboxamide], the half-maximal effective concentration (EC50) in assay [1] lay in the range of 0.5 to 5 µM. For the same molecule, the IC50 in assay [2] is 0.1 to 0.5 µM.
For `Cc1ccc(CC(=O)Nc2cn(CCCCn3cc(C(=O)NCc4cccc(OC(F)(F)F)c4)nn3)nn2)cn1` [Example 313, 1-(4-{4-[2-(6-methylpyridin-3-yl)acetamido]-1H-1,2,3-triazol-1-yl}butyl)-N-{[3-(trifluoromethoxy)phenyl]methyl}-1H-1,2,3-triazole-4-carboxamide], in that order: less than 0.1 µM and less than 0.1 µM.
As to `Cc1ccc(CNC(=O)c2cn(CCCCn3cc(NC(=O)Cc4ccccn4)nn3)nn2)cn1` [Example 314, N-[(6-methylpyridin-3-yl)methyl]-1-(4-{4-[2-(pyridin-2-yl)acetamido]-1H-1,2,3-triazol-1-yl}butyl)-1H-1,2,3-triazole-4-carboxamide], in assay [1], the EC50 fell in the range of 0.5 to 5 µM. Besides, the IC50 in assay [2] lay in the range of 0.1 to 0.5 µM.
For `Cc1ccc(CNC(=O)c2cn(CCCCn3cc(NC(=O)Cc4cccnc4)nn3)nn2)cn1` [Example 315, N-[(6-methylpyridin-3-yl)methyl]-1-(4-{4-[2-(pyridin-3-yl)acetamido]-1H-1,2,3-triazol-1-yl}butyl)-1H-1,2,3-triazole-4-carboxamide] the same measures were 0.5 to 5 µM and 0.1 to 0.5 µM.
For `Cc1ccc(CNC(=O)c2cn(CCCCn3cc(NC(=O)Cc4ccc(C)nc4)nn3)nn2)cn1` [Example 316, 1-(4-{4-[2-(6-methylpyridin-3-yl)acetamido]-1H-1,2,3-triazol-1-yl}butyl)-N-[(6-methylpyridin-3-yl)methyl]-1H-1,2,3-triazole-4-carboxamide] the same measures were 0.5 to 5 µM and less than 0.1 µM.
For `Cc1ccc(CNC(=O)c2cn(CCCCn3cc(NC(=O)CC4CCCC4)nn3)nn2)cn1` [Example 317, 1-{4-[4-(2-cyclopentylacetamido)-1H-1,2,3-triazol-1-yl]butyl}-N-[(6-methylpyridin-3-yl)methyl]-1H-1,2,3-triazole-4-carboxamide], in that order: 0.1 to 0.5 µM and 0.1 to 0.5 µM.
In assay [1], `Cc1ccc(CNC(=O)c2cn(CCCCn3cc(NC(=O)CC4CCCCC4)nn3)nn2)cn1` [Example 318, 1-{4-[4-(2-cyclohexylacetamido)-1H-1,2,3-triazol-1-yl]butyl}-N-[(6-methylpyridin-3-yl)methyl]-1H-1,2,3-triazole-4-carboxamide] gave a 50% effective concentration (EC50) of less than 0.1 µM. Moreover, in assay [2], the IC50 is less than 0.1 µM.
In assay [1], `Cc1ccc(CC(=O)Nc2cn(CCCCn3cc(C(=O)NCC4CC4)nn3)nn2)cn1` [Example 319, N-(cyclopropylmethyl)-1-(4-{4-[2-(6-methylpyridin-3-yl)acetamido]-1H-1,2,3-triazol-1-yl}butyl)-1H-1,2,3-triazole-4-carboxamide] came in with an EC50 of more than 5 µM. The IC50 in assay [2] is 0.5 to 5 µM.
For `O=C(Cc1cccnc1)Nc1cn(CCCCn2cc(C(=O)NCc3cccnc3)nn2)nn1` [Example 320, 1-(4-{4-[2-(pyridin-3-yl)acetamido]-1H-1,2,3-triazol-1-yl}butyl)-N-(pyridin-3-ylmethyl)-1H-1,2,3-triazole-4-carboxamide] the same measures were 0.5 to 5 µM and 0.1 to 0.5 µM.
For `O=C(Cc1ccccn1)Nc1cn(CCCCn2cc(C(=O)NCc3cccnc3)nn2)nn1` [Example 321, 1-(4-{4-[2-(pyridin-2-yl)acetamido]-1H-1,2,3-triazol-1-yl}butyl)-N-(pyridin-3-ylmethyl)-1H-1,2,3-triazole-4-carboxamide], in that order: 0.5 to 5 µM and 0.5 to 5 µM.

Values taken from patent US10344025B2, “GLS1 inhibitors for treating disease” (Board of Regents, The University of Texas System, priority 2014, dated 2019).
